Consider 1 molecule from paper PMC9295568, “Dual Inhibition of Vacuolar-ATPase and TMPRSS2 Is Required for Complete Blockade of SARS-CoV-2 Entry into Cells” (Antimicrobial Agents and Chemotherapy, 2022).

Where two headings read alike, the source gives them in different places.

Type in all cases: cell-based
Assay [1] deals with SARS-CoV-2 PsV D614G. The note with it: read-out: IC50, inhibition of PsV entry.
Assay [2] deals with SARS-CoV-2 PsV B.1.1.529 (Omicron). The assay is described as follows: microbe, parasite or virus in culture. As to conditions: Omicron variant, Vero-TMPRSS2 cells.
Assay [3] has as its system SARS-CoV-2 PsV D614G. The note with it: read-out: IC50, inhibition of PsV entry. This is another data set of the same source.

Take `CN(C)C(=O)COC(=O)Cc1ccc(OC(=O)c2ccc(NC(=N)N)cc2)cc1` [Camostat]: the results for the IC50 in assay [1] and in assay [3] were 199 nM and above 300000 nM, respectively. Moreover, the “inhibition of PsV entry (in words)” value in assay [2] is on record as “unable to inhibit”.

Usually IC50 stands for the concentration needed to halve the response being measured.
